Experimental data taken from patent US6737383B1, “Herbicidal oxadiazolidines” (priority 1999, dated 2004).

Key:
[1] = test system: corn; assay: Test B pre/postemergence corn; type: in vivo, Zea mays
How it was run: (§1)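 Herbicidal effect was estimated by eye on a ten-point control scale after plants spent twelve to sixteen days in a greenhouse following soil or foliar treatment. Foliar sprays targeted plants at one to four leaves; all doses were formulated in a non-phytotoxic solvent with surfactant.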

[2] = test system: morningglory; assay: Test B pre/postemergence morningglory; type: in vivo, Ipomoea hederacea
How it was run: as §1

[3] = test system: velvetleaf; assay: Test B pre/postemergence velvetleaf; type: in vivo, Abutilon theophrasti
How it was run: as §1

[4] = test system: purple nutsedge; assay: Test B pre/postemergence purple nutsedge; type: in vivo, Cyperus rotundus
How it was run: as §1

[5] = test system: duck salad; assay: Test B flood test duck salad; type: in vivo, Heteranthera limosa
How it was run: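 Read-out is a visual response score from 0 (no effect) to 10 (complete control), assigned by comparison with untreated controls. Treatment was applied at the 2-leaf stage, and plants stayed in the greenhouse for twelve to sixteen days before scoring.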

[6] = test system: crabgrass; assay: Test B pre/postemergence crabgrass; type: in vivo, Digitaria sanguinalis
How it was run: as §1

[7] = test system: giant foxtail; assay: Test B pre/postemergence giant foxtail; type: in vivo, Setaria faberii
How it was run: as §1

[8] = test system: sugar beet; assay: Test B pre/postemergence sugar beet; type: in vivo, Beta vulgaris
How it was run: as §1

[9] = test system: wheat; assay: Test B pre/postemergence wheat; type: in vivo, Triticum aestivum
How it was run: as §1

[10] = test system: surinam grass; assay: Test B pre/postemergence surinam grass; type: in vivo, Brachiaria decumbens
How it was run: as §1

[11] = test system: soybean; assay: Test B pre/postemergence soybean; type: in vivo, Glycine max
How it was run: as §1

[12] = test system: bedstraw; assay: Test B pre/postemergence bedstraw; type: in vivo, Galium aparine
How it was run: as §1

[13] = test system: pigweed; assay: Test B pre/postemergence pigweed; type: in vivo, Amaranthus retroflexus
How it was run: as §1

[14] = test system: cocklebur; assay: Test B pre/postemergence cocklebur; type: in vivo, Xanthium strumarium
How it was run: as §1

[15] = test system: rape; assay: Test B pre/postemergence rape; type: in vivo, Brassica napus
How it was run: as §1

[16] = Postemergence, Rate 62 g/ha, scale 0 to 10, 0 is no effect, 10 is complete control
[17] = Postemergence, Rate 250 g/ha, scale 0 to 10, 0 no effect, 10 complete control
[18] = Preemergence, Rate 62 g/ha, scale 0 to 10 (0 no effect, 10 complete control)
[19] = Preemergence, Rate 125 g/ha, scale 0 to 10 (0 no effect, 10 complete control)
[20] = Preemergence, Rate 250 g/ha, scale of 0 to 10 where 0 is no effect and 10 is complete control
[21] = Preemergence, Rate 500 g/ha, scale 0 (no effect) to 10 (complete control)
[22] = Rate 125 g/ha, Postemergence, scale 0 to 10, 0 no effect, 10 complete control
[23] = Rate 500 g/ha, Postemergence, scale 0 to 10, 0 no effect, 10 complete control

In the case of `Cc1cc(C)c(-n2c(=O)on(C(=O)N(c3ccc(F)cc3)C(C)C)c2=O)c(C)c1` [Compound 60], the “Corn plant response rating” value [1, 16] is reported as 0, the “Corn plant response rating” value [1, 17] is reported as 0 and the “Corn plant response rating” value [1, 18] is reported as 0. For the same compound, the “Plant response rating, Corn” value [1, 19] was 0, the “Plant response rating, Corn” value [1, 20] was 0 and the “Corn plant response rating” value [1, 21] was 0. For the same compound, the “Corn plant response rating” value [1, 22] was 0, the “Corn plant response rating” value [1, 23] was 0 and the “Morningglory plant response rating” value [2, 16] was 1. For the same compound, the “Morningglory plant response rating” value [2, 17] was 2, the “Morningglory plant response rating” value [2, 18] was 0 and the “Plant response rating, Morningglory” value [2, 19] was 0. For the same compound, the “Plant response rating, Morningglory” value [2, 20] was 0, the “Morningglory plant response rating” value [2, 21] was 0 and the “Morningglory plant response rating” value [2, 22] was 2. The “Morningglory plant response rating” value [2, 23] was 2, the “Velvetleaf plant response rating” value [3, 16] was 0 and the “Velvetleaf plant response rating” value [3, 17] was 0. The “Velvetleaf plant response rating” value [3, 18] was 0, the “Plant response rating, Velvetleaf” value [3, 19] was 0 and the “Plant response rating, Velvetleaf” value [3, 20] was 0. For the same compound, the “Velvetleaf plant response rating” value [3, 21] was 0, the “Velvetleaf plant response rating” value [3, 22] was 0 and the “Velvetleaf plant response rating” value [3, 23] was 0. The “Nutsedge plant response rating” value [4, 16] was 0, the “Nutsedge plant response rating” value [4, 17] was 0 and the “Nutsedge plant response rating” value [4, 18] was 0. The “Plant response rating, Nutsedge” value [4, 19] was 0, the “Plant response rating, Nutsedge” value [4, 20] was 0 and the “Nutsedge plant response rating” value [4, 21] was 0. The “Nutsedge plant response rating” value [4, 22] was 0, the “Nutsedge plant response rating” value [4, 23] was 0 and the “Ducksalad plant response rating” value [5, 16] was 0. The “Ducksalad plant response rating” value ([5]; Rate 125 g/ha, Postemergence section (flood test species), scale 0 to 10, 0 no effect, 10 complete control) was 0, the “Ducksalad plant response rating” value ([5]; Rate 500 g/ha, listed under Postemergence (flood test species), scale 0 to 10, 0 no effect, 10 complete control) was 0 and the “Ducksalad plant response rating” value ([5]; flood test, listed under Postemergence, Rate 250 g/ha, scale 0 to 10, 0 no effect, 10 complete control) was 0. The “Crabgrass plant response rating” value [6, 16] was 0, the “Crabgrass plant response rating” value [6, 17] was 1 and the “Crabgrass plant response rating” value [6, 18] was 0. For the same compound, the “Plant response rating, Crabgrass” value [6, 19] was 1, the “Plant response rating, Crabgrass” value [6, 20] was 1 and the “Crabgrass plant response rating” value [6, 21] was 1. The “Crabgrass plant response rating” value [6, 22] was 0, the “Crabgrass plant response rating” value [6, 23] was 2 and the “Giant foxtail plant response rating” value [7, 16] was 0. The “Giant foxtail plant response rating” value [7, 17] was 0, the “Giant foxtail plant response rating” value [7, 18] was 3 and the “Plant response rating, Giant foxtail” value [7, 19] was 3. The “Plant response rating, Giant foxtail” value [7, 20] was 4, the “Giant foxtail plant response rating” value [7, 21] was 5 and the “Giant foxtail plant response rating” value [7, 22] was 0. For the same compound, the “Giant foxtail plant response rating” value [7, 23] was 0, the “Sugarbeets plant response rating” value [8, 16] was 0 and the “Sugarbeets plant response rating” value [8, 17] was 0. For the same compound, the “Sugarbeets plant response rating” value [8, 18] was 0, the “Plant response rating, Sugarbeets” value [8, 19] was 0 and the “Plant response rating, Sugarbeets” value [8, 20] was 3. The “Sugarbeets plant response rating” value [8, 21] was 5, the “Sugarbeets plant response rating” value [8, 22] was 0 and the “Sugarbeets plant response rating” value [8, 23] was 0. For the same compound, the “Wheat plant response rating” value [9, 16] was 0, the “Wheat plant response rating” value [9, 17] was 0 and the “Wheat plant response rating” value [9, 18] was 0. For the same compound, the “Plant response rating, Wheat” value [9, 19] was 0, the “Plant response rating, Wheat” value [9, 20] was 0 and the “Wheat plant response rating” value [9, 21] was 0. For the same compound, the “Wheat plant response rating” value [9, 22] was 0, the “Wheat plant response rating” value [9, 23] was 0 and the “B. signalgrass plant response rating” value [10, 16] was 0. For the same compound, the “B. signalgrass plant response rating” value [10, 17] was 0, the “B. signalgrass plant response rating” value [10, 18] was 0 and the “Plant response rating, B. signalgrass” value [10, 19] was 0. The “Plant response rating, B. signalgrass” value [10, 20] was 0, the “B. signalgrass plant response rating” value [10, 21] was 0 and the “B. signalgrass plant response rating” value [10, 22] was 0. The “B. signalgrass plant response rating” value ([10]; Rate 500 g/ha, Postemergence, scale of 0 to 10 where 0 is no effect and 10 is complete control) was 0, the “Soybean plant response rating” value [11, 16] was 2 and the “Soybean plant response rating” value [11, 17] was 3. The “Soybean plant response rating” value [11, 18] was 0, the “Plant response rating, Soybean” value [11, 19] was 0 and the “Plant response rating, Soybean” value [11, 20] was 0. The “Soybean plant response rating” value [11, 21] was 0, the “Soybean plant response rating” value [11, 22] was 3 and the “Soybean plant response rating” value [11, 23] was 3. For the same compound, the “Bedstraw plant response rating” value [12, 17] was 7, the “Bedstraw plant response rating” value [12, 18] was 0 and the “Plant response rating, Bedstraw” value [12, 19] was 0. The “Plant response rating, Bedstraw” value [12, 20] was 0, the “Bedstraw plant response rating” value [12, 21] was 5 and the “Bedstraw plant response rating” value [12, 22] was 7. The “Bedstraw plant response rating” value [12, 23] was 7, the “Redroot pigweed plant response rating” value [13, 16] was 2 and the “Redroot pigweed plant response rating” value [13, 17] was 4. The “Redroot pigweed plant response rating” value [13, 18] was 0, the “Plant response rating, Redroot pigweed” value [13, 19] was 0 and the “Plant response rating, Redroot pigweed” value [13, 20] was 0. The “Redroot pigweed plant response rating” value [13, 21] was 0, the “Redroot pigweed plant response rating” value [13, 22] was 4 and the “Redroot pigweed plant response rating” value [13, 23] was 6. For the same compound, the “Cocklebur plant response rating” value [14, 16] was 0, the “Cocklebur plant response rating” value [14, 17] was 0 and the “Cocklebur plant response rating” value [14, 18] was 0. The “Plant response rating, Cocklebur” value [14, 19] was 0, the “Cocklebur plant response rating” value [14, 22] was 0 and the “Cocklebur plant response rating” value [14, 23] was 0. For the same compound, the “Rape plant response rating” value [15, 16] was 0, the “Rape plant response rating” value [15, 17] was 0 and the “Rape plant response rating” value [15, 18] was 0. The “Plant response rating, Rape” value [15, 19] was 0, the “Plant response rating, Rape” value [15, 20] was 0 and the “Rape plant response rating” value [15, 21] was 0. For the same compound, the “Rape plant response rating” value [15, 22] was 0 and the “Rape plant response rating” value [15, 23] was 4.
